Laboratory results reported in article PMC5461540, “MOB1 Mediated Phospho-recognition in the Core Mammalian Hippo Pathway” (Molecular & Cellular Proteomics : MCP, 2017).
Changes are numbered by the printed parent chain. Like-named read-outs stand apart in the source and are kept apart here. Where a SMILES comes first, the peptide text is derived from it.

How the values were obtained:
[1] = molecular target: T1, MOB1A (Homo sapiens, UniProt Q9H8S9); experiment: Fluorescence polarization peptide binding assay, MOB1A wild-type; conditions: FP
T1 construct: MOB1A (2–216, NP_060691); 6xHis (N, cleaved yes); GST (N, cleaved yes); made in house; host or cells: E. coli BL21 (DE3) CodonPlus RIL
T1 sequence (Q9H8S9 2-216): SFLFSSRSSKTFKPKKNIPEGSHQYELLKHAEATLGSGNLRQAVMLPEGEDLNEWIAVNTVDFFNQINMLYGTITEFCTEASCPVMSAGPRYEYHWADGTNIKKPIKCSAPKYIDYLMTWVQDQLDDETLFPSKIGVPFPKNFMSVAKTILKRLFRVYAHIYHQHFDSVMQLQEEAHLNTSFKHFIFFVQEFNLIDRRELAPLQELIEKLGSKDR
Description: (§1) Human MST1 kinase domain (amino acids 2–326, corresponding to NCBI RefSeq protein NP_006273), MST2 kinase domain (2–322, NP_006272), MOB1B (2–216, NP_001231695), MOB1A (2–216, NP_060691) wild-type and indicated MOB1A mutant proteins, MOB2 (2–237, NP_001165694), MOB3A (2–217, NP_570719), MOB3B (2–216, NP_079037), MOB3C (2–216, NP_660322), MOB4 (2–225, NP_056202), MOB4^RRR→AAA (2–225), and yeast Mob1 (79–314, NP_012160) were expressed in E. coli BL21 (DE3) CodonPlus RIL cells as N-terminal dual 6xhistidine (HIS) and glutathione S-transferase (GST), Tobacco Etch Virus (TEV) cleavable, fusion proteins using a modified pETM-30 vector. MOB wild-type and mutants were purified in batch on glutathione-Sepharose resin (GE Healthcare, Uppsala, Sweden) and eluted by cleavage from the affinity tags with HIS tagged TEV protease. TEV protease was removed from the eluted protein by subtractive immobilized-metal affinity chromatography. Cleaved protein was then concentrated and buffer exchanged by size exclusion chromatography (SEC) using a Superdex 75 120 ml column (GE Healthcare). For GST pull-downs and Far-Western analysis, the TEV cleavage step was omitted.
MST1 phosphopeptides encompassing pT353 and pT367 (15-mers) used for crystallization and FITC labeled nonphosphorylated and phosphorylated MST1 T353 peptides, T367 peptides, T329-T340 peptides, T380-T387 peptides and optimized Nud1-like peptides for fluorescence polarization binding experiments were purchased from Biomatik (Cambridge, ON). Peptide sequences used for crystallization studies are: T353, […](p)TMIEH and T367, […](p)TMVINA. All peptides used for biophysical studies are listed in supplemental Table S1.
Twelve-point fluorescence polarization binding measurements were performed in triplicate in 384-well plate format using an Analyst HT (Artisan-Scientific, Sunnyvale, CA) reader. Each 20 μl measurement condition contained 20 nM FITC labeled MST1 peptide or Nud1-like peptide and the indicated concentration of MOB proteins in 25 mM HEPES pH 7.5, 150 mM NaCl, 2 mM DTT, and 1 mg/ml bovine serum albumin (BSA). Kd values were obtained by fitting the results to a one site-specific binding model using GraphPad Prism.

[2] = molecular target: T2, MOB1A KRR→3A mutant (Homo sapiens, UniProt Q9H8S9, K153A/R154A/R157A); experiment: Fluorescence polarization peptide binding assay, MOB1A KRR→3A mutant (K153, R154, R157 to alanine); conditions: Fig. 2B, MOB1A KRR→3A (K153, R154, R157 to alanine); FP, 20 nM FITC labeled peptide, pH 7.5; n = 3; N.D. = Kd could not be determined
T2 construct: MOB1A (2–216, NP_060691) wild-type and indicated MOB1A mutant proteins; 6xHis (N, cleaved yes); GST (N, cleaved yes); made in house; host or cells: E. coli BL21 (DE3) CodonPlus RIL
T2 sequence (Q9H8S9 2-216 K153A/R154A/R157A): T1 sequence (Q9H8S9 2-216) with K152A, R153A, R156A
Description: as §1, with “TEV protease was removed from the eluted protein by subtractive immobilized-metal affinity chromatography. Cleaved protein was then concentrated and buffer exchanged by size exclusion chromatography (SEC) using a Superdex 75 120 ml column (GE Healthcare). For GST pull-downs and Far-Western analysis, the TEV cleavage step was omitted.” left out
MST1 phosphopeptides encompassing pT353 and pT367 (15-mers) used for crystallization and FITC labeled nonphosphorylated and phosphorylated MST1 T353 peptides, T367 peptides, T329-T340 peptides, T380-T387 peptides and optimized Nud1-like peptides for fluorescence polarization binding experiments were purchased from Biomatik (Cambridge, ON). […]
Twelve-point fluorescence polarization binding measurements were performed in triplicate in 384-well plate format using an Analyst HT (Artisan-Scientific, Sunnyvale, CA) reader. […]

[3] = test system: GST-MOB1B; experiment: Peptide array Far-Western overlay with GST-MOB1B; assay type: binding, human; conditions: cellulose-bound 15-mer peptide SPOT array probed with 1 μg GST-MOB1B at 20 °C overnight, anti-GST HRP detection
Method: Cellulose-bound peptide arrays were prepared employing Fmoc solid phase peptide synthesis using a MultiPep-RSi-Spotter (INTAVIS, Köln, Germany) according to the SPOT synthesis method provided by the manufacturer, and previously described ([29]). Peptides were synthesized on amino-functionalized cellulose membranes (Whatman™ Chromatography paper Grade 1CHR, GE Healthcare Life Sciences #3001–878) and the presence of SPOTed peptides was confirmed by ultraviolet light (UV, λ = […]). Peptide sequences were chosen for each of the phosphorylated sites within the sequence encompassing residues 327 to 487 of MST1 as reported in PhosphositePlus (31/01/2014, ref 30). In addition, 15 amino acid-long peptides spanning the entire MST1 linker region (aa 327–487) were also synthesized in both phospho- and nonphosphorylated versions (for every serine, threonine, or tyrosine position; supplemental Fig. S1). Subsequent arrays were generated by alanine scanning from the pT353 and pT367 peptide sequences. The peptide arrays were soaked in 100% ethanol and blocked in 5% milk in H2O for 6 h at 20 °C. One microgram of GST-MOB1B (or GST alone) was used to probe the arrays at 20 °C overnight. Following washes with PBS plus 0.1% Tween-20, the arrays were blocked again in 5% milk for 1 h. […]

[4] = molecular target: yeast Mob1; conditions: yeast Mob1 binding to Nud1 short linear phosphopeptide motif; cited from earlier work
Description: Key to its function as a Hippo pathway activator is the ability of MOB1 to bind directly to MST1 and MST2 kinases. Recent structural studies provided key insight into the underlying mechanism of binding.

[5] = Fig. 3D summary of MST1 phosphopeptide affinities for MOB1A, read-out: Kd
[6] = 20 nM FITC labeled peptide, recombinant wild-type MOB1A, pH 7.5

CSCC[C@H](NC(=O)[C@H](CCC(=O)O)NC(=O)[C@H](CC(=O)O)NC(=O)CNC(=O)[C@@H](NC(=O)[C@H](C)NC(=O)[C@H](CCCNC(=N)N)NC(=O)[C@@H](NC(=O)[C@H](CCSC)NC(=O)[C@@H](NC(=O)CN)[C@@H](C)O)C(C)C)C(C)C)C(=O)NCC(=O)N[C@H](C(=O)N[C@H](C(=O)N[C@@H](CCCNC(=N)N)C(=O)O)C(C)C)[C@@H](C)OP(=O)(O)O [MST1 T329/pT340 peptide] (HELM PEPTIDE1{G.T.M.V.R.A.V.G.D.E.M.G.[C[C@@H](OP(=O)(O)O)[C@H](N[*:1])C(=O)[*:2]].V.R}$$$$V2.0)
Kd [1, 5]: 66.1 µM

CSCC[C@H](NC(=O)[C@H](CCC(=O)O)NC(=O)[C@H](CC(=O)O)NC(=O)CNC(=O)[C@@H](NC(=O)[C@H](C)NC(=O)[C@H](CCCNC(=N)N)NC(=O)[C@@H](NC(=O)[C@H](CCSC)NC(=O)[C@@H](NC(=O)CN)[C@@H](C)OP(=O)(O)O)C(C)C)C(C)C)C(=O)NCC(=O)N[C@H](C(=O)N[C@H](C(=O)N[C@@H](CCCNC(=N)N)C(=O)O)C(C)C)[C@@H](C)O [MST1 pT329/T340 peptide] (HELM PEPTIDE1{G.[C[C@@H](OP(=O)(O)O)[C@H](N[*:1])C(=O)[*:2]].M.V.R.A.V.G.D.E.M.G.T.V.R}$$$$V2.0)
Kd [1, 5]: 46.5 µM

CSCC[C@H](NC(=O)[C@H](CCC(=O)O)NC(=O)[C@H](CC(=O)O)NC(=O)CNC(=O)[C@@H](NC(=O)[C@H](C)NC(=O)[C@H](CCCNC(=N)N)NC(=O)[C@@H](NC(=O)[C@H](CCSC)NC(=O)[C@@H](NC(=O)CN)[C@@H](C)OP(=O)(O)O)C(C)C)C(C)C)C(=O)NCC(=O)N[C@H](C(=O)N[C@H](C(=O)N[C@@H](CCCNC(=N)N)C(=O)O)C(C)C)[C@@H](C)OP(=O)(O)O [MST1 pT329/pT340 peptide] (HELM PEPTIDE1{G.[C[C@@H](OP(=O)(O)O)[C@H](N[*:1])C(=O)[*:2]].M.V.R.A.V.G.D.E.M.G.[C[C@@H](OP(=O)(O)O)[C@H](N[*:1])C(=O)[*:2]].V.R}$$$$V2.0)
Kd ([1]; Supplemental Fig. 4A, 4B, MOB1A, differentially phosphorylated MST1 15-mer peptides, mean ± SEM (n=3), read-out: kd): 49 ± 6 µM

CC[C@H](C)[C@H](NC(=O)[C@H](CCSC)NC(=O)[C@@H](NC(=O)[C@H](CC(N)=O)NC(=O)[C@H](C)NC(=O)CNC(=O)[C@H](CC(=O)O)NC(=O)[C@@H](NC(=O)[C@H](CCSC)NC(=O)[C@@H](NC(=O)[C@H](CO)NC(=O)[C@H](C)NC(=O)[C@@H](N)C(C)C)[C@@H](C)O)[C@@H](C)O)[C@@H](C)O)C(=O)N[C@@H](CCC(=O)O)C(=O)N[C@@H](Cc1c[nH]cn1)C(=O)O [T353] (H-VASTMTDGANTMIEH-OH)
Kd [1, 6]: no detectable binding

CC[C@H](C)[C@H](NC(=O)[C@@H](NC(=O)[C@H](CCSC)NC(=O)[C@@H](NC(=O)CNC(=O)[C@H](CC(C)C)NC(=O)[C@H](CCC(N)=O)NC(=O)[C@H](CO)NC(=O)[C@@H]1CCCN1C(=O)[C@H](CC(C)C)NC(=O)[C@@H](NC(=O)[C@H](CC(=O)O)NC(=O)[C@@H](N)CC(=O)O)[C@@H](C)O)[C@@H](C)O)C(C)C)C(=O)N[C@@H](CC(N)=O)C(=O)N[C@@H](C)C(=O)O [T367] (H-DDTLPSQLGTMVINA-OH)
Kd [1, 6]: no detectable binding

CC[C@H](C)[C@H](NC(=O)[C@H](CCSC)NC(=O)[C@@H](NC(=O)[C@H](CC(N)=O)NC(=O)[C@H](C)NC(=O)CNC(=O)[C@H](CC(=O)O)NC(=O)[C@@H](NC(=O)[C@H](CCSC)NC(=O)[C@@H](NC(=O)[C@H](CO)NC(=O)[C@H](C)NC(=O)[C@@H](N)C(C)C)[C@@H](C)O)[C@@H](C)O)[C@@H](C)OP(=O)(O)O)C(=O)N[C@@H](CCC(=O)O)C(=O)N[C@@H](Cc1c[nH]cn1)C(=O)O [pT353] (HELM PEPTIDE1{V.A.S.T.M.T.D.G.A.N.[C[C@@H](OP(=O)(O)O)[C@H](N[*:1])C(=O)[*:2]].M.I.E.H}$$$$V2.0)
Kd [2]: no measurable binding | Kd ([1]; 20 nM FITC labeled peptide, recombinant wild-type MOB1A, pH 7.5, read-out: Kd): 0.28 µM

AKPSFLEYFEQKEKE [MST1 residues 391 to 405]
binding signal in Far-Western peptide array [3]: sufficient to bind to MOB1B

TVLNNYSpTVHQKVPS
Kd [4]: 2.4 µM
